Reference: patent US20220273008A1, “PLANT BODY CONTAINING NOVEL STEVIOL GLYCOSIDE” (SUNTORY HOLDINGS LIMITED, priority 2019, published 2022)
Values joined by “and” are separate entries in the source; they are usually repeats but may differ in a detail not shown here. Identical values can stand only once.

Experiments:
[1] = Evaluation of sweetness level: choosing the sugar-added sample of equivalent sweetness intensity, trained panelists; assay type: in vivo, human; conditions: for Sweetness level, Average / Sweetness level, Highest / Sweetness level, Lowest: 48 mg in 400 mL pure water vs sugar samples of Brix 3.0 to 5.0, relative to sugar; for sweetness compared with sugar (in words): in vivo
Procedure: In order to evaluate the sweetness levels of Novel steviol glycosides A and B, samples were prepared by adding sugar to pure water to give Brix of 3.0 to 5.0 in 0.5 increments. Compounds 15 and 17 obtained by the chemical syntheses were used as Novel steviol glycosides A and B, respectively, where 48 mg of each sample was dissolved in 400 mL of pure water to be tested. In addition, samples were also prepared for comparison by dissolving 48 mg of each of Reb.A, Reb.D and Reb.M in 400 mL of pure water.

[2] = Sensory evaluation of taste quality of beverage samples (sweetness on-set, lingering sweet aftertaste, bitterness, lingering bitter aftertaste); assay type: in vivo, human; conditions: beverage samples in pure water adjusted to Brix 5 in terms of sugar, compared with Reb.A, Reb.D, Reb.M and sugar
Excerpt: (§1) In order to evaluate the taste quality of various steviol glycosides, Reb.A, Reb.D, Reb.M, sugar and Novel steviol glycoside A (Compound 15) were each added to pure water to prepare beverage samples. All of the beverage samples were adjusted to have final sweetness level (Brix) of 5 in terms of sugar (sucrose), and thus the sweetness levels of Reb.A, Reb.D, Reb.M and Novel steviol glycoside A (Compound 15) were 312, 317, 341 and 354, respectively.
(§2) The resulting beverage samples were subjected to sensory evaluation for rating the attributes, which were sweetness on-set, lingering sweet aftertaste, bitterness and lingering bitter aftertaste. Panelists who had been trained about sensory attributes of sweeteners (7 members) evaluated based on the following evaluation criteria. For each evaluation item, the steviol glycosides were scored in 0.5 increments provided that the score of sugar was 3. A higher score represents faster sweetness on-set, shorter lingering sweet aftertaste, less bitterness and shorter lingering bitter aftertaste. The evaluation scores shown in the diagram are the average scores of the scores from the 8 panelists.
as §1, with “glycoside B” for “glycoside A”, “(Compound 17)” for “(Compound 15)”, “were 288, 310, 324” for “were 312, 317, 341”, “and 250,” for “and 354,”
as §2, with “shorter lingering aftertaste. The” for “shorter lingering bitter aftertaste. The”, “from the 6 panelists.” for “from the 8 panelists.”

[3] = background art; cited from earlier work
[4] = evaluation of Novel steviol glycoside A (Table 10), 7 panelists
[5] = evaluation of Novel steviol glycoside B (Table 11)

Row | Compound | Sweetness level, Average [1, 4] | Sweetness level, Highest [1, 4] | Sweetness level, Lowest [1, 4] | sweetness compared with sugar (in words) [1] | bitterness [2] | Sweetness level, Average [1, 5] | Sweetness level, Highest [1, 5] | Sweetness level, Lowest [1, 5] | sweetness, times the sweetness of sugar [3] | further results
1 | C=C1CC23CCC4C(C)(C(=O)OC5OC(CO)C(O)C(O)C5OC5OCC(O)C(O)C5O)CCCC4(C)C2CCC1(OC1OC(CO)C(O)C(OC2OC(CO)C(O)C(O)C2O)C1OC1OC(CO)C(O)C(O)C1O)C3 (stereo not drawn) [Novel steviol glycoside A] | 354 and 354.1 | 415.8 | 319.0 | sweeter than sugar | less bitterness as compared to other components including sugar | – | – | – | – | sweetness level higher in average than that of sugar ([1]; average of panelists, 48 mg in 400 mL pure water): about 354 times; lingering bitter aftertaste [2]: shorter lingering bitter aftertaste as compared to other glycosides; lingering sweet aftertaste [2]: less sweetness; bitterness ([2]; listed as Glycoside A): weaker bitterness than other components including sugar; lingering bitter aftertaste ([2]; listed as Glycoside A): less lingering sweet and bitter aftertastes; lingering sweet aftertaste ([2]; listed as Glycoside A): less lingering sweet and bitter aftertastes
2 | C=C1C[C@@]23CC[C@H]4[C@@](C)(CCC[C@@]4(C)C(=O)O[C@@H]4O[C@H](CO)[C@@H](O)[C@H](O)[C@H]4O[C@@H]4O[C@H](CO)[C@@H](O)[C@H](O)[C@H]4O)[C@@H]2CC[C@]1(O[C@@H]1O[C@H](CO)[C@@H](O)[C@H](O[C@@H]2O[C@H](CO)[C@@H](O)[C@H](O)[C@H]2O)[C@H]1O[C@@H]1O[C@H](CO)[C@@H](O)[C@H](O)[C@H]1O)C3 [RebD, rebaudioside D] | 317.9 | 398.0 | 253.5 | – | – | 310.3 | 393.6 | 241.1 | – | Sweetness level, Average ([1]; evaluation of Novel steviol glycoside A (Table 10), 7 panelists, listed as Reb.D): 317; Sweetness level, Average ([1]; evaluation of Novel steviol glycoside B (Table 11), listed as Reb.D): 310
3 | C=C1C[C@@]23CC[C@H]4[C@@](C)(CCC[C@@]4(C)C(=O)O[C@@H]4O[C@H](CO)[C@@H](O)[C@H](O)[C@H]4O)[C@@H]2CC[C@]1(O[C@@H]1O[C@H](CO)[C@@H](O)[C@H](O[C@@H]2O[C@H](CO)[C@@H](O)[C@H](O)[C@H]2O)[C@H]1O[C@@H]1O[C@H](CO)[C@@H](O)[C@H](O)[C@H]1O)C3 [Reb A, rebaudioside A] | 312.0 | 398.9 | 243.0 | – | – | 288.3 | 329.2 | 239.5 | 350-450 times | Sweetness level, Average ([1]; evaluation of Novel steviol glycoside A (Table 10), 7 panelists, listed as Reb.A): 312; Sweetness level, Average ([1]; evaluation of Novel steviol glycoside B (Table 11), listed as Reb.A): 288
4 | C=C1C[C@@]23CC[C@H]4[C@@](C)(CCC[C@@]4(C)C(=O)O[C@@H]4O[C@H](CO)[C@@H](O)[C@H](O)[C@H]4O)[C@@H]2CC[C@]1(O[C@@H]1O[C@H](CO)[C@@H](O)[C@H](O)[C@H]1O[C@@H]1O[C@H](CO)[C@@H](O)[C@H](O)[C@H]1O)C3 [Stevioside] | – | – | – | – | – | – | – | – | 250-300 times | –
5 | C=C1CC23CCC4C(C)(C(=O)OC5OC(CO)C(O)C(OC6OC(CO)C(O)C(O)C6O)C5OC5OC(CO)C(O)C(O)C5O)CCCC4(C)C2CCC1(OC1OC(CO)C(O)C(OC2OC(CO)C(O)C(O)C2O)C1OC1OCC(O)C(O)C1O)C3 (stereo not drawn) [Novel steviol glycoside B] | – | – | – | sweeter than sugar | weaker bitterness than other steviol glycosides | – | – | – | – | –
6 | C=C1C[C@@]23CC[C@H]4[C@@](C)(CCC[C@@]4(C)C(=O)O[C@@H]4O[C@H](CO)[C@@H](O)[C@H](O[C@@H]5O[C@H](CO)[C@@H](O)[C@H](O)[C@H]5O)[C@H]4O[C@@H]4O[C@H](CO)[C@@H](O)[C@H](O)[C@H]4O)[C@@H]2CC[C@]1(O[C@@H]1O[C@H](CO)[C@@H](O)[C@H](O[C@@H]2O[C@H](CO)[C@@H](O)[C@H](O)[C@H]2O)[C@H]1O[C@@H]1O[C@H](CO)[C@@H](O)[C@H](O)[C@H]1O)C3 [RebM, rebaudioside M] | 341.1 | 352.2 | 286.0 | – | – | 323.6 | 373.4 | 236.5 | – | Sweetness level, Average ([1]; evaluation of Novel steviol glycoside A (Table 10), 7 panelists, listed as Reb.M): 341; Sweetness level, Average ([1]; evaluation of Novel steviol glycoside B (Table 11), listed as Reb.M): 324
